Key:
Assay in all cases: relative viability (nuclei count vs DMSO), 5 days (fraction); higher = more cells survive
Cabozantinib + Alpelisib = compound: COc1cc2nccc(Oc3ccc(NC(=O)C4(C(=O)Nc5ccc(F)cc5)CC4)cc3)c2cc1OC [Cabozantinib] + Cc1nc(NC(=O)N2CCC[C@H]2C(N)=O)sc1-c1ccnc(C(C)(C)C(F)(F)F)c1 [Alpelisib] (partner 2 µM)
Procedure, shortened: (§1)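 Each reported value is a median over duplicate plates. It expresses relative viability: treated-well nuclei count divided by vehicle-well nuclei count. Lung cancer cell lines in 1536-well plates were dosed by pin tool a day after seeding, alone with one drug or with a fixed anchor-drug dose plus five library-drug doses (not always all listed) in √10 steps, and nuclei were counted after 5 days.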

[1] = compound: COc1cc2nccc(Oc3ccc(NC(=O)C4(C(=O)Nc5ccc(F)cc5)CC4)cc3)c2cc1OC [Cabozantinib] + O=C(CCCCCCC(=O)Nc1ccccc1)NO [Vorinostat] (partner 1 µM)
Procedure, shortened: as §1

Zosuquidar + Tozasertib = compound: O[C@@H](COc1cccc2ncccc12)CN1CCN([C@@H]2c3ccccc3[C@@H]3[C@H](c4ccccc42)C3(F)F)CC1 [Zosuquidar] + Cc1cc(Nc2cc(N3CCN(C)CC3)nc(Sc3ccc(NC(=O)C4CC4)cc3)n2)n[nH]1 [Tozasertib] (partner 0.1 µM)
Procedure, shortened: as §1

Zosuquidar + Dasatinib = compound: O[C@@H](COc1cccc2ncccc12)CN1CCN([C@@H]2c3ccccc3[C@@H]3[C@H](c4ccccc42)C3(F)F)CC1 [Zosuquidar] + Cc1nc(Nc2ncc(C(=O)Nc3c(C)cccc3Cl)s2)cc(N2CCN(CCO)CC2)n1 [Dasatinib] (partner 0.075 µM)
Procedure, shortened: as §1

Cell Line	relative viability (Cabozantinib + Alpelisib; first compound 0.02 µM)	relative viability (Cabozantinib + Alpelisib; first compound 0.06325 µM)	relative viability (Cabozantinib + Alpelisib; first compound 0.6325 µM)	relative viability (Cabozantinib + Alpelisib; first compound 2 µM)	relative viability ([1]; first compound 0.02 µM)	relative viability ([1]; first compound 0.06325 µM)	relative viability ([1]; first compound 0.6325 µM)	relative viability ([1]; first compound 2 µM)	relative viability (Zosuquidar + Tozasertib; first compound 0.01 µM)	relative viability (Zosuquidar + Tozasertib; first compound 0.03162 µM)	relative viability (Zosuquidar + Tozasertib; first compound 0.1 µM)	relative viability (Zosuquidar + Tozasertib; first compound 0.3162 µM)	relative viability (Zosuquidar + Tozasertib; first compound 1 µM)	relative viability (Zosuquidar + Dasatinib; first compound 0.01 µM)	relative viability (Zosuquidar + Dasatinib; first compound 0.03162 µM)	relative viability (Zosuquidar + Dasatinib; first compound 0.1 µM)	relative viability (Zosuquidar + Dasatinib; first compound 0.3162 µM)	relative viability (Zosuquidar + Dasatinib; first compound 1 µM)	relative viability (Cabozantinib + Alpelisib; first compound 0.2 µM)	relative viability ([1]; first compound 0.2 µM)
H3255	0.675	0.635	0.779	0.644	0.887	0.791	0.769	0.926	0.734	0.737	0.718	0.711	0.604	0.346	0.273	0.341	0.727	0.303		
NCI-H1915	1.1	1.08	1.08	1.07	0.525	0.548	0.522	0.473	0.406	0.453	0.447	0.461	0.405	0.311	0.305	0.308	0.337	0.283	1.03	0.511
NCI-H661	0.544	0.758	0.755	0.609	0.783	0.856	0.809	0.935	0.354	0.313	0.353	0.328	0.33	0.812	0.756	0.922	1.03	0.865	0.725	0.879
NCI-H2126	0.798	0.764	0.755	0.765	0.471	0.773	0.784	0.798	0.815	0.861		0.918	0.796	0.581	0.599		0.639	0.61	0.73	0.777
PC-14	1	1.03	0.901	0.868	0.691	0.956	0.692	0.748	0.551	0.602	0.629	0.519	0.57	0.271	0.223	0.341	0.303	0.284		
EMC-BAC-2	0.815	0.804	0.739	0.737	0.279	0.678	0.456	0.422	0.278	0.33	0.285	0.274	0.261	0.325	0.34	0.373	0.339	0.325	0.744	0.608
NCI-H1437	1.03	1.03	1.02	0.934	0.931	0.984	0.809	0.715	0.41	0.408	0.424	0.396	0.381	0.404	0.398	0.457	0.715	0.346	0.992	0.925
NCI-H2405		0.858	0.744	0.67	0.846	1.25	0.986	1.07	0.774	0.762	0.724	0.747	0.74	0.208	0.174	0.208	0.228	0.215	0.838	1.01
NCI-H1666	1.02	1.09	0.972	1.03	1.09	1.1	1.04	0.95	0.596	0.62	0.666	0.587	0.592	0.785	0.818	0.869	0.9	0.761	0.924	1.02
NCI-H1993	0.71	0.719	0.713	0.798	0.553	0.723	0.64	0.831	0.564	0.5	0.578	0.595	0.541	0.66	0.507	0.501	0.564	0.654	0.662	0.63
COR-L23	0.717	0.883	0.699	0.59	0.367	0.692	0.407	0.417	0.196	0.224	0.188	0.215	0.187	0.459	0.474	0.474	0.581	0.485	0.855	0.431
LU99A	0.469	0.495	0.502	0.543	0.413	0.524	0.456	0.647	0.215	0.229	0.257	0.254	0.271	0.458	0.577	0.505	0.552	0.569	0.429	0.574
NCI-H596	0.462	0.191	0.416	0.385	0.628	0.812	1.5	0.6	0.877		0.986	1.16	0.905	0.584		0.715	0.623	0.618	0.552	0.677
NCI-H727	0.505	0.6	0.529	0.594	0.935	1.36	1.28	1.22	0.675	0.484	0.45	0.439	0.401	0.373	0.387	0.424	0.429	0.355	0.593	1.23
NCI-H1975	0.675	0.807	0.604	0.623	0.754	0.833	0.728	0.651	0.74	0.775	1.01	0.803	0.787	0.335	0.313	0.433	0.374	0.352	0.669	0.773
NCI-H1355	0.934	0.873	0.857	0.732	0.659	0.754	0.635	0.625	0.527	0.542	0.623	0.612	0.519	0.681	0.726	0.623	0.85	0.711	0.904	0.6
NCI-H1755	0.993	0.919	0.877	0.764	0.765	0.792	0.739	0.705	0.541	0.634	0.535	0.634	0.564	0.401	0.383	0.375	0.451	0.415	0.882	0.83
NCI-H2009	1.25	1.21	1.14	1.21	0.701	0.855	0.809	0.748	0.538	0.518	0.574	0.46	0.436	0.281	0.174	0.244	0.331	0.284	1.16	0.744
NCI-H1395	1.13	1.21	1.13	1.06	0.623	0.831	0.685	0.656	0.729	0.893	0.804	0.81	0.755	0.404	0.378	0.307	0.406	0.431	1.06	0.703
HCC-78	0.26	0.298	0.201	0.198		0.415	0.344	0.295	0.413	0.329		0.44	0.398	0.553	0.386		0.331	0.254	0.227	0.394
NCI-H322M	0.77	0.881	0.846	0.773	0.897	1.1	0.894	0.917	0.461	0.54	0.383	0.445	0.519	0.242	0.229	0.242	0.269	0.227		0.894
HOP-62	0.981	1.02	0.807	1.08	0.661	0.764	0.603	0.555	0.363	0.312	0.396	0.341	0.308	0.702	0.528	0.594	0.679	0.633	1.43	0.669
NCI-H838	1.06	1.08	0.933	0.886	0.744	0.765	0.665	0.667	0.264	0.316	0.273	0.291	0.285	0.321	0.26		0.336	0.35	0.989	0.713
LK-2		1.22	1.23	0.856	0.226	0.178	0.309	0.348	0.171	0.163	0.174	0.172	0.183	0.31	0.41	0.291	0.297	0.314	1.08	0.385
BEN	0.992	1.11	1.06	0.776	0.562	0.567	0.554	0.518	0.482	0.489	0.503	0.563	0.431	0.31	0.281	0.299	0.314	0.258	1.01	0.565
NCI-H23		0.794	0.646	0.545		0.794	0.631	0.551	0.393	0.629	0.537	0.34	0.362	0.713	0.811	0.739	0.983	0.806	0.716	0.553
NCI-H1944		0.848	0.75	0.778	0.615	0.617	0.582	0.637	0.244	0.24	0.254	0.243	0.248	0.206	0.159	0.187	0.244	0.229	0.78	0.527

From the supplement of paper PMC10307832
